In US20260226073A1 (AURIGENE ONCOLOGY LIMITED, priority 2023, published 2026):

What was measured:
[1] = target: T1, human recombinant CBL-b (human Biotin CBL-b recombinant protein a.a. 39-426) (Homo sapiens, UniProt Q13191); assay: Biochemical assay for CBL-b inhibition (ligand displacement TR-FRET); format: binding; details: 50 nM CBL-b, 0.3 μM Bodipy FL-Probe, read-out: IC50 (CBL-b inhibition, group)
T1 construct: human Biotin CBL-b recombinant protein a.a; 39-426; Biotin (biotinylated); made in house
T1 sequence (Q13191 39-426): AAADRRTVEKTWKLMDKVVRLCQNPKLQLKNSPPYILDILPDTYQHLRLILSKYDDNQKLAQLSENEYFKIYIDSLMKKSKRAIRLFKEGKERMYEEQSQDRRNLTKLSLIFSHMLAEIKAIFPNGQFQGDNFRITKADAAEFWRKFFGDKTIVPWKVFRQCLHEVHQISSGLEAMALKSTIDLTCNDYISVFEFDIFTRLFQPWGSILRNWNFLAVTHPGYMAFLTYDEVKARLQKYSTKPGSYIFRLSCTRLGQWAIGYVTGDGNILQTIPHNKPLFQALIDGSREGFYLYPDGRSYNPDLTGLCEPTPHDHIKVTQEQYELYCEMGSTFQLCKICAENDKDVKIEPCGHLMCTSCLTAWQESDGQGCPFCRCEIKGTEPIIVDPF
Summary of the method: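 Biotinylated CBL-b (a.a. 39-426, 50 nM final) pre-incubated with compound 60 min at RT in HEPES/NaCl/Triton/BSA/TCEP buffer, then Bodipy FL probe (0.3 μM final) 60 min, then terbium-streptavidin 60 min. TR-FRET read at 665/615 nm; IC50 and % max inhibition from sigmoidal fits.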

[2] = test system: NFAT signaling pathway in Jurkat NFAT reporter cells; assay: Jurkat NFAT reporter assay; format: cell-based; details: Homo sapiens, 30 min with compound, then soluble anti-human CD3/CD28 antibody for 6 hours, luciferase readout, read-out: EC50 (Group)
Summary of the method: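 Jurkat cells bearing an NFAT-RE-driven luciferase reporter (1×10^5 per well) preincubated with Cbl-b inhibitor for 30 min, then stimulated 6 h with soluble anti-CD3/CD28. Luminescence read with Bio-Glo; values are fold change over anti-CD3/CD28-stimulated cells without inhibitor.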

[3] = test system: human PBMCs stimulated with anti-CD3/CD28 Dynabeads; assay: Human PBMC cytokine release assay (IL-2 by ELISA); format: cell-based; details: Dynabeads CD3/CD28 48 hours, IL-2 ELISA, fold change over baseline, read-out: EC50 (human PBMC cytokine release, group)
Procedure: Peripheral blood mononuclear cells (PBMC) were isolated from healthy human donor using Histopaque (Sigma). The Cbl-inhibitor was added to 1×10^5 cells per well and the plate was incubated for 30 minutes at 37° C. in 5% CO2 at different concentrations with a final DMSO concentration of <0.5%. Following incubation with the Cbl-b inhibitor, human PBMCs were stimulated with Dynabeads™ Human T-Activator CD3/CD28 (Thermo Fisher Scientific) for 48 hours. Cell free supernatant were collected after end of incubation and were analyzed for cytokine secretion, including IL-2 by ELISA (R&D Systems). Readouts were reported as fold change over baseline. Here, baseline was the measurement obtained from human PBMCs stimulated with Dynabeads™ Human T-Activator CD3/CD28, where the cells were not incubated with a Cbl-b inhibitor.

| IC50 [1] [nM] | EC50 [2] [nM] | SMILES | EC50 [3] [nM] |
| --- | --- | --- | --- |
| < 80 | 300 to 1000 | Cn1cnnc1CC1(c2ccc3c(c2)C(=O)N(c2cc(CNCCC(F)(F)F)cc(C(F)(F)F)n2)C3)COC1 [Compound 25, 6-(3-((4-Methyl-4H-1,2,4-triazol-3-yl)methyl)oxetan-3-yl)-2-(6-(trifluoro-methyl)-4-(((3,3,3-trifluoropropyl)amino)methyl)pyridin-2-yl)isoindolin-1-one] | < 5000 |
| 80 to 300 | 300 to 1000 | Cn1cnnc1CC1(c2ccc3c(c2)C(=O)N(c2cc(CN4CC5CCCC5C4)cc(C(F)(F)F)n2)C3)COC1 (stereo not drawn) [Compound 35, 2-(4-((Hexahydrocyclopenta[c]pyrrol-2(1H)-yl)methyl)-6-(trifluoromethyl)pyri-din-2-yl)-6-(3-((4-methyl-4H-1,2,4-triazol-3-yl)methyl)oxetan-3-yl)isoindolin-1-one] | < 5000 |
| < 80 | < 300 | C[C@@H]1C[C@H](C)CN(Cc2cc(N3Cc4ccc(C5(Cc6nncn6C)COC5)cc4C3=O)nc(C(F)(F)F)c2)C1 [Compound 39, 2-(4-(((3S,5R)-3,5-Dimethylpiperidin-1-yl)methyl)-6-(trifluoromethyl)pyridin-2-yl)-6-(3-((4-methyl-4H-1,2,4-triazol-3-yl)methyl)oxetan-3-yl)isoindolin-1-one] | < 5000 |
| < 80 | < 300 | C[C@H]1CCCN(Cc2cc(Cl)nc(N3Cc4ccc(C5(Cc6nncn6C)COC5)cc4C3=O)c2)C1 [Compound 40, (S)-2-(6-Chloro-4-((3-methylpiperidin-1-yl)methyl)pyridin-2-yl)-6-(3-((4-methyl-4H-1,2,4-triazol-3-yl)methyl)oxetan-3-yl)isoindolin-1-one] | < 5000 |
| < 80 | < 300 | C[C@@H]1C[C@H](C)CN(Cc2cc(Cl)nc(N3Cc4ccc(C5(Cc6nncn6C)COC5)cc4C3=O)c2)C1 [Compound 52, 2-(6-Chloro-4-(((3S,5R)-3,5-dimethylpiperidin-1-yl)methyl)pyridin-2-yl)-6-(3-((4-methyl-4H-1,2,4-triazol-3-yl)methyl)oxetan-3-yl)isoindolin-1-one] | < 5000 |
| < 80 | 300 to 1000 | Cc1nc(CN2CCC[C@H](C)C2)cc(N2Cc3ccc(C4(Cc5nncn5C)COC4)cc3C2=O)n1 [Compound 53, (S)-6-(3-((4-Methyl-4H-1,2,4-triazol-3-yl)methyl)oxetan-3-yl)-2-(2-methyl-6-((3-methylpiperidin-1-yl)methyl)pyrimidin-4-yl)isoindolin-1-one] | < 5000 |
| 80 to 300 | < 300 | Cc1cc(CN2C[C@H](C)C[C@H](C)C2)cc(N2Cc3ccc(C4(Cc5nncn5C)COC4)cc3C2=O)c1 [Compound 56, 2-(3-(((3S,5R)-3,5-Dimethylpiperidin-1-yl)methyl)-5-methylphenyl)-6-(3-((4-methyl-4H-1,2,4-triazol-3-yl)methyl)oxetan-3-yl)isoindolin-1-one] | < 5000 |
| < 80 | < 300 | Cn1cnnc1CC1(c2ccc3c(c2)C(=O)N(c2cc(CNCC4CC4)cc(Cl)n2)C3)COC1 [Compound 57, 2-(6-Chloro-4-(((cyclopropylmethyl)amino)methyl)pyridin-2-yl)-6-(3-((4-methyl-4H-1,2,4-triazol-3-yl)methyl)oxetan-3-yl)isoindolin-1-one] | < 5000 |
| 80 to 300 | 300 to 1000 | Cc1cc(CN2C[C@@H](C)C[C@H](C)C2)cc(N2Cc3ccc(C4(Cc5nncn5C)COC4)cc3C2=O)c1 [Compound 59, 2-(3-(((3S,5S)-3,5-Dimethylpiperidin-1-yl)methyl)-5-methylphenyl)-6-(3-((4-methyl-4H-1,2,4-triazol-3-yl)methyl)oxetan-3-yl)isoindolin-1-one] | < 5000 |
| < 80 | < 300 | Cc1cc(CN2C[C@H](C)C[C@H](C)C2)cc(N2Cc3ccc(C4(Cc5nncn5C)COC4)cc3C2=O)n1 [Compound 78, 2-(4-(((3S,5R)-3,5-Dimethylpiperidin-1-yl)methyl)-6-methylpyridin-2-yl)-6-(3-((4-methyl-4H-1,2,4-triazol-3-yl)methyl)oxetan-3-yl)isoindolin-1-one] | < 5000 |
| < 80 | < 300 | Cn1cnnc1CC1(c2ccc3c(c2)C(=O)N(c2cc(CNCC4CC4)cc(C(F)(F)F)n2)C3)COC1 [Compound 80, 2-(4-(((Cyclopropylmethyl)amino)methyl)-6-(trifluoromethyl)pyridin-2-yl)-6-(3-((4-methyl-4H-1,2,4-triazol-3-yl)methyl)oxetan-3-yl)isoindolin-1-one] | < 5000 |
